From patent US12559464B2, “Quinazolinone dione compounds and uses thereof” (Edgewise Therapeutics, Inc., priority 2023, dated 2026) come the findings set out here.

Assay [1] has as its system myosin ATPase, Rabbit Psoas myofibrils. Description: Myofibril ATPase assay, rabbit psoas (skeletal) myofibrils. The format is biochemical. To be noted: Rabbit Psoas Prep pCa 25 GEOM_MEAN; for Rabbit Psoas EC25 (Y75 value): concentration required to reduce myosin ATP-ase activity by 25%.
Assay [2] has as its system myosin ATPase, Porcine Atria myofibrils. Description: Myofibril ATPase assay, porcine atria myofibrils. The assay is classed as biochemical. To be noted: concentration required to reduce myosin ATP-ase activity by 25%; Porcine Atria Prep pCa 25 GEOM_MEAN.
For assay [3], the target named is T1, myosin ATPase, Porcine Ventricle myofibrils (Sus scrofa, UniProt P79293).
T1 construct: Myofibrils from porcine cardiac muscle was isolated from the left ventricle of Yucatan minipigs; tissue Exemplar Genetics; host or cells: left ventricle of Yucatan minipigs, myofibrils
Put plainly: Myofibril ATPase assay, porcine ventricle myofibrils. The assay is classed as biochemical, porcine (Yucatan minipigs). The settings on record: concentration required to reduce myosin ATP-ase activity by 25%; Porcine Ventricle Prep pCa 25 GEOM_MEAN. The gist of the method:
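Myofibrils from Yucatan minipig left ventricle; ADP production coupled via PK-LDH to NADH loss, read kinetically at 340 nm every 1.5–2 min for 75 min in PIPES/MgCl2 pH 7.0 buffer. Slopes normalized to vehicle and fit to 4-parameter logistic; values are concentrations giving 75% (inhibition) or 125% (activation) of vehicle activity.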

T1 sequence (P79293 whole entry): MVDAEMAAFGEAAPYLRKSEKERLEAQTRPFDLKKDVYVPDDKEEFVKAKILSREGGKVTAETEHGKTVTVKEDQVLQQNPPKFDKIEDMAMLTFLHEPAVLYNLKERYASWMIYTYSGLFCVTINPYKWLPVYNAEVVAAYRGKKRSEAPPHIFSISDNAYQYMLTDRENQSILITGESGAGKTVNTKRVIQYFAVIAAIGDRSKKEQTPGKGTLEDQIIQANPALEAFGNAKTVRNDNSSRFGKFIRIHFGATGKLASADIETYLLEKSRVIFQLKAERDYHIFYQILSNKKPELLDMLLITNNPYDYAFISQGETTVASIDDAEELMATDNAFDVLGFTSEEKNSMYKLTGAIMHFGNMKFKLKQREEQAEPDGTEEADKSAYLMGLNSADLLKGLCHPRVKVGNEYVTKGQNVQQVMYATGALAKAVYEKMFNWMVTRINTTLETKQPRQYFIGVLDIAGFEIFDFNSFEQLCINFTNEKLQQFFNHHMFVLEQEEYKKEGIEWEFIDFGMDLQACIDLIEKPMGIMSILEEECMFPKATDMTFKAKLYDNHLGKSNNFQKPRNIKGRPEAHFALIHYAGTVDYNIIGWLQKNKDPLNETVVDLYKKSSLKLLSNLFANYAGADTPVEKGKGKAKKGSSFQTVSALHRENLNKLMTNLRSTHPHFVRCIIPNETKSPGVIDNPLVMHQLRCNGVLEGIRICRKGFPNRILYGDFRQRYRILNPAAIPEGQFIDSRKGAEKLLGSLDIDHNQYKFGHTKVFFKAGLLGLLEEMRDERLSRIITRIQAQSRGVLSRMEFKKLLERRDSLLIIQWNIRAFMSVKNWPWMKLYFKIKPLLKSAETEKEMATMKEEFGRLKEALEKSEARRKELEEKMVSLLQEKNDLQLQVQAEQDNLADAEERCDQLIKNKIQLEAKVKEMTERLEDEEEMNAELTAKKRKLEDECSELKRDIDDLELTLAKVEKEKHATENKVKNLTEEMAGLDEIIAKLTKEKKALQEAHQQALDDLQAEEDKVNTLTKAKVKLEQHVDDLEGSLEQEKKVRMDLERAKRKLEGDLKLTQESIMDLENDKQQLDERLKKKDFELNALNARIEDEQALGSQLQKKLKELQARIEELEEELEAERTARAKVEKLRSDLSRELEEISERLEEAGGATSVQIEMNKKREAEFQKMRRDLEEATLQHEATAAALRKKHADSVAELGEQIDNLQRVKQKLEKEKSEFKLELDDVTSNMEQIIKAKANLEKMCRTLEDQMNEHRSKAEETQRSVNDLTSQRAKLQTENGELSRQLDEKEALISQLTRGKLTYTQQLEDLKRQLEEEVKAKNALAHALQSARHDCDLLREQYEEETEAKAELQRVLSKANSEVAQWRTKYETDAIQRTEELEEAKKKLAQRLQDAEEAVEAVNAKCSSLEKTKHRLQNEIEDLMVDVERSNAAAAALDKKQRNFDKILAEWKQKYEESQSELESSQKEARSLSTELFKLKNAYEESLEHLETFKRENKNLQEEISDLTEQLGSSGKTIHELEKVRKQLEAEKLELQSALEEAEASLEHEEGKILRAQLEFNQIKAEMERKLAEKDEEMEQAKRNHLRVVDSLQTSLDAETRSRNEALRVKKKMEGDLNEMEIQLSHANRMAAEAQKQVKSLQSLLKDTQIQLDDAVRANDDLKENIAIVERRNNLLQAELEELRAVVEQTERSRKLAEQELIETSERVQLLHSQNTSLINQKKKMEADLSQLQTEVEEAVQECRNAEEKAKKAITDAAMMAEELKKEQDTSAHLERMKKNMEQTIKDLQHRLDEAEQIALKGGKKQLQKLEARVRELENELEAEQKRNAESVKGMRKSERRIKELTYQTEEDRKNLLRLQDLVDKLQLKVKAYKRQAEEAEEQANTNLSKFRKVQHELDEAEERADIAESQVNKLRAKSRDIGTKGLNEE

`C[C@H](NC(=O)Cn1c(=O)[nH]c2cccc(F)c2c1=O)c1ccc(F)cc1F` [Compound 154, (S)-N-(1-(2,4-difluorophenyl)ethyl)-2-(5-fluoro-2,4-dioxo-1,4-dihydroquinazolin-3(2H)-yl)acetamide]: in assay [1], the “Rabbit Psoas EC25 (Y75 value)” value was determined as 0.11 µM. Besides, the “Porcine Atria EC25 (Y75 value)” value in assay [2] amounted to 0.1312 µM. Besides, in assay [3], the “Porcine Ventricle EC25 (Y75 value)” value is 1.15 µM.

Consider `C[C@H](NC(=O)Cn1c(=O)[nH]c2ccc(F)cc2c1=O)c1ccc(F)cc1F` [Compound 155, (S)-N-(1-(2,4-difluorophenyl)ethyl)-2-(6-fluoro-2,4-dioxo-1,4-dihydroquinazolin-3(2H)-yl)acetamide], for which the “Rabbit Psoas EC25 (Y75 value)” value in assay [1] was 0.073 µM. Moreover, the “Porcine Atria EC25 (Y75 value)” value in assay [2] amounted to 0.0623 µM. In addition, the “Porcine Ventricle EC25 (Y75 value)” value in assay [3] was 0.1805 µM.

With `C[C@@H](NC(=O)Cn1c(=O)[nH]c2ccccc2c1=O)c1ccc(F)cc1F` [Compound 166, (R)-N-(1-(2,4-difluorophenyl)ethyl)-2-(2,4-dioxo-1,4-dihydroquinazolin-3(2H)-yl)acetamide], in assay [1], the “Rabbit Psoas EC25 (Y75 value)” value came to 100 µM. Moreover, the “Porcine Atria EC25 (Y75 value)” value in assay [2] worked out at 100 µM. Moreover, the “Porcine Ventricle EC25 (Y75 value)” value in assay [3] is 100 µM.

Take `CC(NC(=O)Cn1c(=O)[nH]c2ccccc2c1=O)c1ccc(F)cc1F` (stereo not drawn) [Compound 169, N-(1-(2,4-difluorophenyl)ethyl)-2-(2,4-dioxo-1,4-dihydroquinazolin-3(2H)-yl)acetamide]: the “Rabbit Psoas EC25 (Y75 value)” value in assay [1] is 0.494 µM. Moreover, the “Porcine Atria EC25 (Y75 value)” value in assay [2] was determined as 2.407 µM. In addition, in assay [3], the “Porcine Ventricle EC25 (Y75 value)” value was determined as 31.6 µM.

For the compound `CC(NC(=O)Cn1c(=O)[nH]c2ccccc2c1=O)c1ccncc1` (stereo not drawn) [Compound 213, 2-(2,4-dioxo-1,4-dihydroquinazolin-3(2H)-yl)-N-(1-(pyridin-4-yl)ethyl)acetamide], the “Rabbit Psoas EC25 (Y75 value)” value in assay [1] came out at 100 µM. Besides, the “Porcine Atria EC25 (Y75 value)” value in assay [2] is 100 µM. Besides, in assay [3], the “Porcine Ventricle EC25 (Y75 value)” value amounted to 100 µM.

In the case of `CC(NC(=O)Cn1c(=O)[nH]c2ccccc2c1=O)c1cncnc1` (stereo not drawn) [Compound 214, 2-(2,4-dioxo-1,4-dihydroquinazolin-3(2H)-yl)-N-(1-(pyrimidin-5-yl)ethyl)acetamide], the “Rabbit Psoas EC25 (Y75 value)” value in assay [1] was 100 µM. In assay [2], the “Porcine Atria EC25 (Y75 value)” value amounted to 100 µM. In addition, the “Porcine Ventricle EC25 (Y75 value)” value in assay [3] was 100 µM.

In the case of `CC(NC(=O)Cn1c(=O)[nH]c2ccccc2c1=O)c1cnccn1` (stereo not drawn) [Compound 215, 2-(2,4-dioxo-1,4-dihydroquinazolin-3(2H)-yl)-N-(1-(pyrazin-2-yl)ethyl)acetamide], in assay [1], the “Rabbit Psoas EC25 (Y75 value)” value turned out to be 100 µM. Further, in assay [2], the “Porcine Atria EC25 (Y75 value)” value came out at 23.9 µM. The “Porcine Ventricle EC25 (Y75 value)” value in assay [3] was 45.3 µM.

With `C[C@H](NC(=O)Cn1c(=O)[nH]c2cnccc2c1=O)c1ccc(F)cc1F` [Compound 301, (S)-N-(1-(2,4-difluorophenyl)ethyl)-2-(2,4-dioxo-1,4-dihydropyrido[3,4-d]pyrimidin-3(2H)-yl)acetamide], in assay [1], the “Rabbit Psoas EC25 (Y75 value)” value worked out at 5.422 µM. For the same compound, the “Porcine Atria EC25 (Y75 value)” value in assay [2] amounted to 79 µM. For the same compound, the “Porcine Ventricle EC25 (Y75 value)” value in assay [3] is 100 µM.

Regarding `C[C@H](NC(=O)Cn1c(=O)[nH]c2ncccc2c1=O)c1ccc(F)cc1F` [Compound 302, (S)-N-(1-(2,4-difluorophenyl)ethyl)-2-(2,4-dioxo-1,4-dihydropyrido[2,3-d]pyrimidin-3(2H)-yl)acetamide], in assay [1], the “Rabbit Psoas EC25 (Y75 value)” value was found to be 100 µM. Besides, the “Porcine Atria EC25 (Y75 value)” value in assay [2] is 100 µM. Further, the “Porcine Ventricle EC25 (Y75 value)” value in assay [3] was 100 µM.

On to `C[C@H](NC(=O)Cn1c(=O)[nH]c2cccnc2c1=O)c1ccc(F)cc1F` [Compound 303, (S)-N-(1-(2,4-difluorophenyl)ethyl)-2-(2,4-dioxo-1,4-dihydropyrido[3,2-d]pyrimidin-3(2H)-yl)acetamide], for which, in assay [1], the “Rabbit Psoas EC25 (Y75 value)” value stood at 23 µM. The “Porcine Atria EC25 (Y75 value)” value in assay [2] was 100 µM. In addition, in assay [3], the “Porcine Ventricle EC25 (Y75 value)” value was determined as 100 µM.

For `CC(C)[C@H](N)C(=O)OCn1c(=O)n(CC(=O)N[C@@H](C)c2ccc(F)cc2F)c(=O)c2cc(F)ccc21` [Compound 401, (3-(2-(((S)-1-(2,4-difluorophenyl)ethyl)amino)-2-oxoethyl)-6-fluoro-2,4-dioxo-3,4-dihydroquinazolin-1(2H)-yl)methyl L-valinate], in assay [1], the “Rabbit Psoas EC25 (Y75 value)” value came out at 6.978 µM. In addition, in assay [2], the “Porcine Atria EC25 (Y75 value)” value was 46.5 µM. The “Porcine Ventricle EC25 (Y75 value)” value in assay [3] was determined as 100 µM.

With `COCn1c(=O)n(CC(=O)N[C@@H](C)c2ccc(F)cc2F)c(=O)c2cc(F)ccc21` [Compound 402, (S)-N-(1-(2,4-difluorophenyl)ethyl)-2-(6-fluoro-1-(methoxymethyl)-2,4-dioxo-1,4-dihydroquinazolin-3(2H)-yl)acetamide], in assay [1], the “Rabbit Psoas EC25 (Y75 value)” value came to 100 µM. Also, the “Porcine Atria EC25 (Y75 value)” value in assay [2] is 100 µM. The “Porcine Ventricle EC25 (Y75 value)” value in assay [3] was 100 µM.

As for `C[C@H](NC(=O)Cn1c(=O)c2cc(F)ccc2n(C)c1=O)c1ccc(F)cc1F` [Compound 404, (S)-N-(1-(2,4-difluorophenyl)ethyl)-2-(6-fluoro-1-methyl-2,4-dioxo-1,4-dihydroquinazolin-3(2H)-yl)acetamide], the “Rabbit Psoas Y125 value (marked #)” value in assay [1] (concentration required to increase myosin ATP-ase activity by 25%) was 100^# ^ μM. Further, the “Porcine Atria EC25 (Y75 value)” value in assay [2] is 12.2 µM. Also, the “Porcine Ventricle EC25 (Y75 value)” value in assay [3] came out at 100 µM.

Take `C[C@H](NC(=O)Cn1c(=O)[nH]c2cc(C(F)(F)F)ccc2c1=O)c1ccc(F)cc1F` [Compound 405, (S)-N-(1-(2,4-difluorophenyl)ethyl)-2-(2,4-dioxo-7-(trifluoromethyl)-1,4-dihydroquinazolin-3(2H)-yl)acetamide]: the “Rabbit Psoas EC25 (Y75 value)” value in assay [1] was 100 µM. The “Porcine Atria EC25 (Y75 value)” value in assay [2] was 100 µM. In assay [3], the “Porcine Ventricle EC25 (Y75 value)” value amounted to 100 µM.

As to `C[C@H](NC(=O)Cn1c(=O)[nH]c2c(F)cccc2c1=O)c1ccc(F)cc1F` [Compound 406, (S)-N-(1-(2,4-difluorophenyl)ethyl)-2-(8-fluoro-2,4-dioxo-1,4-dihydroquinazolin-3(2H)-yl)acetamide], the “Rabbit Psoas EC25 (Y75 value)” value in assay [1] stood at 12.297 µM. For the same compound, the “Porcine Atria EC25 (Y75 value)” value in assay [2] is 63.31 µM. Besides, the “Porcine Ventricle EC25 (Y75 value)” value in assay [3] turned out to be 100 µM.

On to `C[C@H](NC(=O)Cn1c(=O)[nH]c2cc(Cl)ccc2c1=O)c1ccc(F)cc1F` [Compound 407, (S)-2-(7-chloro-2,4-dioxo-1,4-dihydroquinazolin-3(2H)-yl)-N-(1-(2,4-difluorophenyl)ethyl)acetamide], for which the “Rabbit Psoas EC25 (Y75 value)” value in assay [1] is 7.16 µM. For the same compound, the “Porcine Atria EC25 (Y75 value)” value in assay [2] was 0.3539 µM. For the same compound, the “Porcine Ventricle EC25 (Y75 value)” value in assay [3] is 100 µM.

Consider `C[C@H](NC(=O)Cn1c(=O)[nH]c2c(Cl)cccc2c1=O)c1ccc(F)cc1F` [Compound 408, (S)-2-(8-chloro-2,4-dioxo-1,4-dihydroquinazolin-3(2H)-yl)-N-(1-(2,4-difluorophenyl)ethyl)acetamide], for which the “Rabbit Psoas EC25 (Y75 value)” value in assay [1] amounted to 100 µM. Besides, the “Porcine Atria EC25 (Y75 value)” value in assay [2] is 100 µM. Further, the “Porcine Ventricle EC25 (Y75 value)” value in assay [3] was found to be 100 µM.
